Test results: ChEMBL document CHEMBL4184180, “Antitussive and expectorant activities of licorice and its major compounds” (2018)
Activity calls are given as the source filed them. The rule behind the calls is not given here.

Tests used:
[1] = tested on: Mus musculus; assay: Antitussive activity in ammonia liquor-induced cough ICR mouse model assessed as reduction in cough frequency at 50 mg/kg, po treated with ammonia 1 hr before and 2.5 hrs after test compound dosing measured for 3 mins relative to control; assay type: functional
[2] = tested on: Mus musculus; assay: Antitussive activity in ammonia liquor-induced cough ICR mouse model assessed as reduction in cough frequency at 50 mg/kg, po treated with ammonia 1 hr before and 5 hrs after test compound dosing measured for 3 mins relative to control; assay type: functional
[3] = tested on: Mus musculus; assay: Antitussive activity in ammonia liquor-induced cough ICR mouse model assessed as reduction in cough frequency at 20 mg/kg, po treated with ammonia 1 hr before and 5 hrs after test compound dosing measured for 3 mins; assay type: functional, organism-based
[4] = tested on: Mus musculus; assay: Expectorant activity in ICR mouse assessed as increase in phenol red secretion in trachea at 50 mg/kg, po for 3 days followed by phenol red treatment at 30 mins post last dose measured after 30 mins by UV-Vis spectrophotometric assay relative to control; assay type: functional
[5] = tested on: Mus musculus; assay: Antitussive activity in ammonia liquor-induced cough ICR mouse model assessed as reduction in cough frequency at 50 mg/kg, po treated with ammonia 1 hr before and 1 hr after test compound dosing measured for 3 mins relative to control; assay type: functional
[6] = tested on: Mus musculus; assay: Antitussive activity in ammonia liquor-induced cough ICR mouse model assessed as reduction in cough frequency at 20 mg/kg, po treated with ammonia 1 hr before and 2.5 hrs after test compound dosing measured for 3 mins; assay type: functional, organism-based
[7] = tested on: Mus musculus; assay: Antitussive activity in ammonia liquor-induced cough ICR mouse model assessed as reduction in cough frequency at 20 mg/kg, po treated with ammonia 1 hr before and 1 hr after test compound dosing measured for 3 mins; assay type: functional, organism-based
[8] = tested on: Mus musculus; assay: Antitussive activity in ammonia liquor-induced cough ICR mouse model assessed as increase in latent period at 50 mg/kg, po treated with ammonia 1 hr before and 1 hr after test compound dosing measured at 1 hr post dose; assay type: functional, organism-based
[9] = tested on: Mus musculus; assay: Antitussive activity in ammonia liquor-induced cough ICR mouse model assessed as reduction in cough frequency at 50 mg/kg, po treated with ammonia 1 hr before and 1 to 5 hrs after test compound dosing measured for 3 mins relative to control; assay type: functional; design: scale not given: the % may be the effect or the level left
[10] = tested on: Mus musculus; assay: Antitussive activity in ammonia liquor-induced cough ICR mouse model assessed as reduction in cough frequency at 50 mg/kg, po treated with ammonia 1 hr before and 1 hr after test compound dosing measured for 3 mins in presence of 5-HT receptor antagonist methysergide relative to control; assay type: functional
[11] = tested on: Mus musculus; assay: Antitussive activity in ammonia liquor-induced cough ICR mouse model assessed as reduction in cough frequency at 50 mg/kg, po treated with ammonia 1 hr before and 1 to 5 hrs after test compound dosing measured for 3 mins in presence of opioid receptor antagonist naloxone relative to control; assay type: functional, organism-based
[12] = tested on: Mus musculus; assay: Antitussive activity in ammonia liquor-induced cough ICR mouse model assessed as reduction in cough frequency at 50 mg/kg, po treated with ammonia 1 hr before and 1 hr after test compound dosing measured for 3 mins in presence of ATP-sensitive K+ channel blocker glibenclamide relative to control; assay type: functional
[13] = tested on: Mus musculus; assay: Expectorant activity in ICR mouse assessed as phenol red secretion in trachea at 20 to 50 mg/kg, po for 3 days followed by phenol red treatment at 30 mins post last dose measured after 30 mins by UV-Vis spectrophotometric assay relative to control; assay type: functional
[14] = tested on: Mus musculus; assay: Antitussive activity in ammonia liquor-induced cough ICR mouse model assessed as reduction in cough frequency at 20 mg/kg, po treated with ammonia 1 hr before and 1 to 5 hrs after test compound dosing measured for 3 mins relative to control; assay type: functional, organism-based
[15] = tested on: Mus musculus; assay: Antitussive activity in ammonia liquor-induced cough ICR mouse model assessed as increase in latent period at 50 mg/kg, po treated with ammonia 1 hr before and 1 to 5 hrs after test compound dosing measured for 3 mins relative to control; assay type: functional
[16] = tested on: Mus musculus; assay: Antitussive activity in ammonia liquor-induced cough ICR mouse model assessed as increase in latent period at 20 mg/kg, po treated with ammonia 1 hr before and 1 to 5 hrs after test compound dosing measured at 1 hr post dose; assay type: functional, organism-based

Structure (SMILES)	Activity [1]	Activity [2]	Activity [3]	Activity [5]	Activity [6]	Activity [7]	other results
CC1(C)[C@@H](O[C@H]2O[C@H](C(=O)O)[C@@H](O)[C@H](O)[C@H]2O[C@@H]2O[C@H](C(=O)O)[C@@H](O)[C@H](O)[C@H]2O)CC[C@]2(C)[C@H]3C(=O)C=C4[C@@H]5C[C@@](C)(C(=O)O)CC[C@]5(C)CC[C@@]4(C)[C@]3(C)CC[C@@H]12	inactive	inactive	inactive	inactive	inactive	inactive	Activity [4]: inactive
CCN(CC)CCOCCOC(=O)C1(c2ccccc2)CCCC1.O=C(O)CC(O)(CC(=O)O)C(=O)O [CARBETAPENTANE CITRATE]	53%	50%	–	58%	–	–	Activity [8]: Active
O=C1C[C@@H](c2ccc(O)cc2)Oc2cc(O)ccc21 [LIQUIRTIGENIN]	–	Active	–	–	–	–	fold change (FC) [4]: 1.57; Activity [9]: 30 - 78%; Activity [10]: inactive; Activity [11]: Active; Activity [12]: inactive; Activity [13]: 156.7%
O=C(/C=C/c1ccc(O)cc1)c1ccc(O)cc1O	Active	Active	Active	inactive	Active	inactive	Activity [4]: inactive
COc1c(CC=C(C)C)c(O)cc2oc(=O)c(-c3ccc(O)cc3O)cc12	inactive	inactive	inactive	inactive	inactive	inactive	–
CC1(C)[C@@H](O)CC[C@]2(C)[C@H]3C(=O)C=C4[C@@H]5C[C@@](C)(C(=O)O)CC[C@]5(C)CC[C@@]4(C)[C@]3(C)CC[C@@H]12 [ENOXOLONE]	–	–	–	–	–	–	Activity [4]: inactive; Activity [9]: 27 - 40%
O=C1C[C@@H](c2ccc(O[C@@H]3O[C@H](CO)[C@@H](O)[C@H](O)[C@H]3O[C@@H]3OC[C@](O)(CO)[C@H]3O)cc2)Oc2cc(O)ccc21	–	–	–	79.1%	–	–	fold change (FC) [4]: 1.97; Activity [9]: 30 - 78%; Activity [10]: 30%; Activity [11]: Active; Activity [14]: Active; fold change (FC) [15]: 1.3 - 1.9; Activity [12]: 28.2%; Activity [13]: 196.6%; Activity [16]: inactive
C=CC(C)(C)c1cc(/C=C/C(=O)c2ccc(O)cc2)c(OC)cc1O	inactive	inactive	inactive	inactive	inactive	inactive	–
COc1cc(O)ccc1/C=C/C(=O)c1ccc(O)cc1	inactive	inactive	inactive	inactive	inactive	inactive	–
O=C(/C=C/c1ccc(O[C@H]2O[C@@H](CO)[C@H](O)[C@@H](O)[C@@H]2O[C@@H]2OC[C@](O)(CO)[C@H]2O)cc1)c1ccc(O)cc1O	inactive	inactive	inactive	Active	inactive	Active	–
COc1ccccc1OCC(O)CO (stereo not given) [GUAIFENESIN]	–	–	–	–	–	–	fold change (FC) [4]: 3; Activity [13]: 299.5%
CC(C)=CCc1cc2c(=O)cc(-c3ccc(O)cc3)oc2cc1O	inactive	inactive	inactive	inactive	inactive	inactive	–
CC1(C)C=Cc2c(ccc3c2OC[C@@H](c2ccc(O)cc2O)C3)O1	Active	–	–	–	–	–	–
CC(C)=CCc1cc(-c2coc3cc(O)c(CC=C(C)C)c(O)c3c2=O)cc(O)c1O	inactive	inactive	inactive	inactive	inactive	inactive	–
O=C1C[C@@H](c2ccc(O[C@@H]3O[C@H](CO)[C@@H](O)[C@H](O)[C@H]3O)cc2)Oc2cc(O)ccc21 [LIQUIRITIN]	Active	Active	–	–	–	–	fold change (FC) [4]: 2.5; Activity [9]: 30 - 78%; Activity [10]: inactive; Activity [11]: Active; Activity [12]: inactive; Activity [13]: 249.8%
O=C(/C=C/c1ccc(O[C@@H]2O[C@H](CO)[C@@H](O)[C@H](O)[C@H]2O)cc1)c1ccc(O)cc1O	inactive	inactive	inactive	inactive	inactive	inactive	–
